The target in experiment [1] is T1, B1R receptor of the rat (bradykinin 1 receptor) (Rattus norvegicus, UniProt P97583).
T1 construct: host or cells: CHO K1 cells (rB1R cells)
T1 sequence (P97583 1-337): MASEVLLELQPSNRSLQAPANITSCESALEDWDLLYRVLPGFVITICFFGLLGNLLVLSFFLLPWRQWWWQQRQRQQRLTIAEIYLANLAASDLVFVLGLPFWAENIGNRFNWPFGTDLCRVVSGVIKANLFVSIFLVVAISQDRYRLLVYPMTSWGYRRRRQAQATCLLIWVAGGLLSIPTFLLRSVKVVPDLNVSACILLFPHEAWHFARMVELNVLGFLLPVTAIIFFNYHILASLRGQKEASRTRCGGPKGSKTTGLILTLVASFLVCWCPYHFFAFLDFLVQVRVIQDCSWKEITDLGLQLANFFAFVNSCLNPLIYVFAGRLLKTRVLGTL
The experiment is described as follows: FLIPR Ca2+ assay (Fluo-4) on CHO K1 cells stably transfected with the B1R gene of the rat; % activation and % inhibition at 10 μM. The format is cell-based. Conditions: CHO K1 rB1R cells, Ca2+ inflow after 100 nM Des-Arg9-bradykinin; for inhibition at 10 µM: CHO-K1, test substance 10 μM, read-out: B1R antagonism, rat [10 μM] % inhibition; for B1R antagonism, rat [10 μM] % inhibition: test substance 10 μM. The procedure, abridged: (§1)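 Fluo-4 Ca2+ flux on FLIPR in stable hB1R or rB1R CHO K1 lines, two additions. Agonism: 10 µM compound versus 0.5 nM Lys-Des-Arg9-BK (human) or 100 nM Des-Arg9-BK (rat); antagonism: same agonists applied 10 min later, suppression expressed against maximum achievable inhibition.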

Experiment [2] addresses T2, human B1R receptor (bradykinin 1 receptor) (Homo sapiens, UniProt P46663).
T2 construct: host or cells: CHO K1 cells (hB1R cells)
T2 sequence (P46663 1-353): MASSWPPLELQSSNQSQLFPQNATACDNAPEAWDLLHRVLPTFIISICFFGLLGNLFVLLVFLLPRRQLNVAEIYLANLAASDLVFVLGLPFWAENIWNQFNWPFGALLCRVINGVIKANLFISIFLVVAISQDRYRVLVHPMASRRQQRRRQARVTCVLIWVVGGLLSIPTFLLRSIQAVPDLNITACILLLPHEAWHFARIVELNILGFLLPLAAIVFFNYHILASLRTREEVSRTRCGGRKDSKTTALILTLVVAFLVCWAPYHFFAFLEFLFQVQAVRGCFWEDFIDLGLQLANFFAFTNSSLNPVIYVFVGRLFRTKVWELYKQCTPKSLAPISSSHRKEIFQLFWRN
The experiment is described as follows: FLIPR Ca2+ assay (Fluo-4) on CHO K1 cells stably transfected with the human B1R gene; % activation and % inhibition at 10 μM. The format is cell-based. Conditions: CHO K1 hB1R cells, Ca2+ inflow after 0.5 nM Lys-Des-Arg9-bradykinin; for inhibition at 10 µM: CHO-K1, test substance 10 μM, read-out: B1R antagonism, human [10 μM] % inhibition; for B1R antagonism, human [10 μM] % inhibition: test substance 10 μM. The procedure, abridged:
as §1

SMILES strings stand for the structures. Where a name gives a salt, the structure may show the parent alone.

Usually inhibition stands for the relative decrease from the control value, in per cent.

Turning to `O=C(COC1CCCCC1N(Cc1ccccc1)S(=O)(=O)c1ccc(Cl)c(Cl)c1)N1CCC(O)(c2ccc(Cl)cc2)CC1` (stereo not shown) [Example 83, N-benzyl-3,4-dichloro-N-(2-(2-(4-(4-chlorophenyl)-4-hydroxypiperidin-1-yl)-2-oxoethoxy)cyclohexyl)phenylsulfonamide], the values for the inhibition at 10 µM in experiment [1] and in experiment [2] were -12.6% and 11.3%, respectively.

Regarding `O=C(COC1CCCCC1N(Cc1ccccc1)S(=O)(=O)c1ccc(Cl)c(Cl)c1)N1CCC(O)(Cc2ccccc2)CC1` (stereo not shown) [Example 84, N-benzyl-N-{2-[2-(4-benzyl-4-hydroxy-piperidin-1-yl)-2-oxo-ethoxy]-cyclohexyl}-3,4-dichloro-phenylsulfonamide], the inhibition at 10 µM in experiment [1] was -9.47%; in experiment [2], -0.61%.

Take `COc1cc(C)c(S(=O)(=O)N2CCCCC2COCC(=O)N2CCC(O)(c3cccs3)CC2)c(C)c1` (stereo not shown) [Example 85, 1-(4-hydroxy-4-thiophen-2-yl-piperidin-1-yl)-2-[1-(4-methoxy-2,6-dimethyl-phenylsulfonyl)-piperidin-2-ylmethoxy]-ethanone]: the inhibition at 10 µM in experiment [1] worked out at 101%; in experiment [2], 106%.

In the case of `COc1cc(C)c(S(=O)(=O)N(C)CCOCC(=O)N2CCC(O)(c3cccs3)CC2)c(C)c1` [Example 86, N-{2-[2-(4-hydroxy-4-thiophen-2-yl-piperidin-1-yl)-2-oxo-ethoxy]-ethyl}-4-methoxy-2,6,N-trimethyl-phenylsulfonamide], the inhibition at 10 µM in experiment [1] was determined as 102%; in experiment [2] it was 106%.

Turning to `COc1cc(C)c(S(=O)(=O)N(C)CCOCC(=O)N2CCC(O)(c3ccncc3)CC2)c(C)c1` [Example 88, N-{2-[2-(4-hydroxy-3,4,5,6-tetrahydro-2H-[4,4′]bipyridinyl-1-yl)-2-oxo-ethoxy]-ethyl}-4-methoxy-2,6,N-trimethyl-phenylsulfonamide], the inhibition at 10 µM in experiment [1] is 103%; in experiment [2] it was 102%.

For the molecule `COc1cc(C)c(S(=O)(=O)N2CCCC2COCC(=O)N2CCC(O)(c3cccnc3)CC2)c(C)c1` (stereo not shown) [Example 89, 1-(4′-hydroxy-3′,4′,5′,6′-tetrahydro-2′H-[3,4′]bipyridinyl-1′-yl)-2-[1-(4-methoxy-2,6-dimethyl-phenylsulfonyl)-pyrrolidin-2-ylmethoxy]-ethanone; hydrochloride], the “B1R antagonism, rat [10 μM] % inhibition” value in experiment [1] (hydrochloride) was 100.44%. In addition, the “B1R antagonism, human [10 μM] % inhibition” value in experiment [2] (hydrochloride) was 104.46%.

Take `O=C(COCC1Cc2ccccc2CN1S(=O)(=O)c1ccccc1)N1CCC(O)(c2cccnc2)CC1` (stereo not shown) [Example 90, 2-(2-phenylsulfonyl-1,2,3,4-tetrahydro-isoquinolin-3-ylmethoxy)-1-(4′-hydroxy-3′,4′,5′,6′-tetrahydro-2′H-[3,4′]bipyridinyl-1′-yl)-ethanone]: the inhibition at 10 µM in experiment [1] was 31.1%; in experiment [2], 13.8%.

Turning to `O=C(COCC1Cc2ccccc2CN1S(=O)(=O)c1ccc(Cl)c(Cl)c1)N1CCC(O)(c2cccnc2)CC1` (stereo not shown) [Example 91, 2-[2-(3,4-dichloro-phenylsulfonyl)-1,2,3,4-tetrahydro-isoquinolin-3-ylmethoxy]-1-(4′-hydroxy-3′,4′,5′,6′-tetrahydro-2′H-[3,4′]bipyridinyl-1′-yl)-ethanone], the inhibition at 10 µM in experiment [1] and in experiment [2] was 93.7% throughout.

Consider `O=C(COCC1Cc2ccccc2CN1S(=O)(=O)c1ccc(Cl)cc1Cl)N1CCC(O)(c2cccnc2)CC1` (stereo not shown) [Example 92, 2-[2-(2,4-dichloro-phenylsulfonyl)-1,2,3,4-tetrahydro-isoquinolin-3-ylmethoxy]-1-(4′-hydroxy-3′,4′,5′,6′-tetrahydro-2′H-[3,4′]bipyridinyl-1′-yl)-ethanone], for which the “B1R antagonism, rat [10 μM] % inhibition” value in experiment [1] is 97.98%. Also, in experiment [2], the “B1R antagonism, human [10 μM] % inhibition” value worked out at 101.02%.

With `CN(CCOCC(=O)N1CCC(O)(c2ccc(Cl)cc2)CC1)S(=O)(=O)c1cc(F)cc(F)c1` [Example 93, N-(2-(2-(4-(4-chlorophenyl)-4-hydroxypiperidin-1-yl)-2-oxoethoxy)ethyl)-3,5-difluoro-N-methylphenylsulfonamide], the inhibition at 10 µM was 6.49% in experiment [1] and -12.1% in experiment [2].

As to `Cc1cc(C)c(S(=O)(=O)N2CCCCC2COCC(=O)N2CCC(O)(c3ccccn3)CC2)c(C)c1` (stereo not shown) [Example 94, 1-(4′-hydroxy-3′,4′,5′,6′-tetrahydro-2′H-[2,4′]bipyridinyl-1′-yl)-2-[1-(2,4,6-trimethyl-phenylsulfonyl)-piperidin-2-ylmethoxy]-ethanone], the inhibition at 10 µM in experiment [1] was 103%; in experiment [2], 104%.

Regarding `O=C(COC1CCCCC1N(Cc1ccccc1)S(=O)(=O)c1ccc(Cl)c(Cl)c1)N1CCC(O)(c2ccccn2)CC1` (stereo not shown) [Example 95, N-benzyl-3,4-dichloro-N-{2-[2-(4′-hydroxy-3′,4′,5′,6′-tetrahydro-2′H-[2,4′]bipyridinyl-1′-yl)-2-oxo-ethoxy]-cyclohexyl}-phenylsulfonamide], the inhibition at 10 µM in experiment [1] is -0.33%; in experiment [2] it was 8.92%.

`O=C(COCC1CCCCN1S(=O)(=O)c1cccc(C(F)(F)F)c1)N1CCC(O)(c2ccccn2)CC1` (stereo not shown) [Example 96, 1-(4′-hydroxy-3′,4′,5′,6′-tetrahydro-2′H-[2,4′]bipyridinyl-1′-yl)-2-[1-(3-trifluoromethyl-phenylsulfonyl)-piperidin-2-ylmethoxy]-ethanone]: the inhibition at 10 µM in experiment [1] is 46.2%; in experiment [2] it was 50.5%.

On to `Cc1ccc(F)cc1S(=O)(=O)N(C)CCOCC(=O)N1CCC(O)(c2ccccn2)CC1` [Example 97, 5-fluoro-N-{2-[2-(4′-hydroxy-3′,4′,5′,6′-tetrahydro-2′H-[2,4′]bipyridinyl-1′-yl)-2-oxo-ethoxy]-ethyl}-2,N-dimethyl-phenylsulfonamide], for which the inhibition at 10 µM in experiment [1] amounted to 43.2%; in experiment [2], 35.4%.

As to `O=C(COC1CCN(S(=O)(=O)c2c(Cl)cc(Cl)cc2Cl)C1)N1CCC(O)(c2ccccn2)CC1` (stereo not shown) [Example 98, 1-(4′-hydroxy-3′,4′,5′,6′-tetrahydro-2′H-[2,4′]bipyridinyl-1′-yl)-2-[1-(2,4,6-trichloro-phenylsulfonyl)-pyrrolidin-3-yloxy]-ethanone], the inhibition at 10 µM in experiment [1] was determined as 31.9%; in experiment [2], 29.1%.

As for `O=C(COCC1Cc2ccccc2N1S(=O)(=O)c1ccc(Cl)c(Cl)c1)N1CCC(O)(Cc2ccccc2)CC1` (stereo not shown) [Example 99, 1-(4-benzyl-4-hydroxy-piperidin-1-yl)-2-[1-(3,4-dichloro-phenylsulfonyl)-2,3-dihydro-1H-indol-2-ylmethoxy]-ethanone], the inhibition at 10 µM in experiment [1] was -12.4%; in experiment [2] it was -22.9%.

As to `O=C(COCC1Cc2ccccc2N1S(=O)(=O)c1ccc(Cl)c(Cl)c1)N1CCC(O)(c2cccnc2)CC1` (stereo not shown) [Example 100, 2-[1-(3,4-dichloro-phenylsulfonyl)-2,3-dihydro-1H-indol-2-ylmethoxy]-1-(4′-hydroxy-3′,4′,5′,6′-tetrahydro-2′H-[3,4′]bipyridinyl-1′-yl)-ethanone], the inhibition at 10 µM is -0.67% in experiment [1] and -6.26% in experiment [2].

As for `Cc1cc(C)c(S(=O)(=O)N2Cc3ccccc3CC2COCC(=O)N2CCC(O)(c3ccccc3)CC2)c(C)c1` (stereo not shown) [Example 101, 1-(4-hydroxy-4-phenylpiperidin-1-yl)-2-((2-(mesitylsulfonyl)-1,2,3,4-tetrahydroisoquinolin-3-yl)methoxy)ethanone], the inhibition at 10 µM in experiment [1] turned out to be 85.4%; in experiment [2] it was 102%.

`CN(CCOCC(=O)N1CCC(O)(c2cccnc2)CC1)S(=O)(=O)c1ccc(Cl)s1` [Example 102, 5-chloro-thiophene-2-sulfonic acid {2-[2-(4′-hydroxy-3′,4′,5′,6′-tetrahydro-2′H-[3,4′]bipyridinyl-1′-yl)-2-oxo-ethoxy]-ethyl}-methyl-amide]: the inhibition at 10 µM in experiment [1] is 16.1%; in experiment [2] it was 14.2%.

Take `CN(CCOCC(=O)N1CCC(O)(c2ccccn2)CC1)S(=O)(=O)c1ccc(Cl)s1` [Example 103, 5-chloro-thiophene-2-sulfonic acid {2-[2-(4′-hydroxy-3′,4′,5′,6′-tetrahydro-2′H-[2,4′]bipyridinyl-1′-yl)-2-oxo-ethoxy]-ethyl}-methyl-amide]: the inhibition at 10 µM in experiment [1] was 19.3%; in experiment [2], -9.25%.

These data come from patent publication US8580965B2, “Substituted sulfonamide compounds” (Gruenenthal GmbH, priority 2006, dated 2013).
